Test results from article PMC8881501, “Identification of SARS-CoV-2 inhibitors targeting Mpro and PLpro using in-cell-protease assay” (Communications Biology, 2022).
Where “and” joins values, the source holds several entries; their conditions need not be identical. Identical values can stand only once. Non-standard residues stand in square brackets, D forms with d. Residues, ends and D or L forms follow the SMILES beside them. Nle = CCCC[C@H](N)C(=O)O

What was measured:
[1] = molecular target: SARS-CoV-2 PLpro (Severe acute respiratory syndrome coronavirus 2, UniProt P0DTC1); test: cell-based; conditions: HEK-293T
[2] = in vitro; conditions: human, CC50, Huh-7.5 cells, alamarBlue reduction
[3] = tested on: Mpro; conditions: thermal shift assay as worded; cited from earlier work
[4] = molecular target: T1, SARS-CoV-2 Mpro (Severe acute respiratory syndrome coronavirus 2, UniProt P0DTC1); test: In-cell protease (ICP) assay, Mpro construct in HEK293T cells; type: cell-based; conditions: HEK-293T
[5] = molecular target: T1, SARS-CoV-2 Mpro; test: biochemical; conditions: Mpro 200 nM, substrate 10 μM, 1 h pre-incubation; read-out: IC50
Description: A cleavage site is indicated by an asterisk. […] N = 3, values are represented as mean ± SE.
For the determination of half-maximal inhibitory concentrations (IC50) of MG-101 and GC376 (BPS Bioscience), a synthetic substrate of Mpro containing FRET pair and Mpro nsp4/5 cleavage site (indicated by an arrow, Dabcyl-KTSAVLQ ↓ SGFRKME-Edans) (BPS Bioscience) was used for the FRET-based cleavage assay. The assay was performed in 96-well, black, flat-bottomed microtiter plates (Greiner Bio-One, Germany) with a final volume of 50 μl. Mpro (a final concentration of 200 nM) was pre-incubated for 1 h at 22 °C with compounds at different concentrations in the assay buffer (20 mM HEPES (pH 7), 0.5 mM EDTA, 1 mM dithiothreitol, 5% glycerol). The substrate was then added at a final concentration of 10 μM to the reaction mixture and the reaction was incubated for 4 h at 22 °C. The readings for the different concentrations of the inhibitor compounds incubated with the substrate without Mpro were measured as a blank. The fluorescence signals (excitation/emission, 360 nm/460 nm) of released EDANS were measured using Infinite 200 PRO multimode plate reader (Tecan, USA). The results were plotted as dose inhibition curves using nonlinear regression with a variable slope to determine the IC50 values of inhibitor compounds using GraphPad Prism 9.0.

[6] = tested on: SARS-CoV-2; type: cell-based; conditions: Huh-7.5, MOI 0.1, 24 h.p.i., anti-N IFA
[7] = tested on: SARS-CoV-2; test: Time of addition (pre-treatment) experiment in Huh-7.5 cells, plaque assay; type: cell-based; conditions: Huh-7.5, pretreatment
[8] = tested on: SARS-CoV-2; test: microbe, parasite or virus in culture; type: cell-based
[9] = read-out: mEmerald-NLS nuclear/total fluorescence (protease activity) normalized to untreated cells, 1 μM, HEK293T, Fig 2A replicate data, untreated control = 100
[10] = read-out: mEmerald-NLS nuclear/total fluorescence (protease activity) normalized to untreated cells, 10 μM, HEK293T, Fig 2A replicate data, untreated control = 100

## CCCC[C@@H](C=O)NC(=O)[C@H](CC(C)C)NC(=O)[C@H](CC(C)C)NC(C)=O [MG-101] (Ac-Leu-Leu-[Nle]-aldehyde)
[1]; [9]
  remaining activity at 1 µM: 68%
[1]; [10]
  remaining activity at 10 µM: 70%
[2]
  CC50 at 24 h: 37 µM
[3]
  IC50: 8.6 µM
[4]; [9]
  remaining activity at 1 µM: 22%
[4]; [10]
  remaining activity at 10 µM: 8.9%
[5]
  IC50: 2890 ± 860 nM
[6]
  inhibition of virus spread compared to untreated controls: 95%
[7]
  effect of pre-treatment on virus production / entry: affect the virus entry
  reduction in virus titer on pretreatment of cells: 1 log
[8]; Severe acute respiratory syndrome coronavirus 2, Huh7.5, 24 h
  EC50: 38 nM
[8]; single drug 1 μM, Huh 7.5, replicates
  virus titer at 24 h.p.i., Fig 6A data: 48000 and 56000 and 44000
